# Measured values as given in the OligoGym collection.
# Values joined by “and” are separate entries in the source; they are usually repeats but may differ in a detail not shown here. Equal values may be shown once. After the bases stand the sugars from the 5' end (letter, count) and the backbone: PS all phosphorothioate, else s phosphorothioate and o phosphodiester by linkage. Methylation of C is not given here. e = 2'-O-(2-methoxyethyl) (MOE); d = 2'-deoxy (DNA)
# Biological target: DGAT2
# Conditions: ASO
Sequence,"target mRNA inhibition (HepG2, 0.12 µM)","target mRNA inhibition (HepG2, 2.5 µM)","target mRNA inhibition (HepG2, 10 µM)","target mRNA inhibition (HepG2, 20 µM)"
"CCTCCTCGAAGATCACCTGC (sugars e5 d10 e5, PS)",49%,,,
"CCTCTCCTGTTTGATGGGTA (sugars e5 d10 e5, PS)",,78% and 85% and 87%,91% and 78% and 88%,
"CCTCTTAGAAGTAATGCTTC (sugars e5 d10 e5, PS)",,83% and 78%,92% and 90%,
"CCTTAGCTTTAATCCAGGAT (sugars e5 d10 e5, PS)",,70%,89%,
"CGCAGGACCCCGGAGTAGGC (sugars e2 d13 e5, PS)",71%,,,
"CGCAGGACCCCGGAGTAGGC (sugars e5 d10 e5, PS)",75% and 70%,,,
"CGCGCAGGACCCCGGAGTAG (sugars e3 d14 e3, PS)",69%,,,
"CGCGCAGGACCCCGGAGTAG (sugars e5 d10 e5, PS)",74%,,,
"CGTTGGTCTTTTTGGCTGCC (sugars e5 d10 e5, PS)",,88%,81%,
"CTATAGAATCAGACAGACCT (sugars e5 d10 e5, PS)",,31%,78%,
"CTCACATGCCTGAGGGCAGC (sugars e5 d10 e5, PS)",,65%,87%,
"CTCAGAGACTCAGCCGCACC (sugars e5 d10 e5, PS)",80%,30%,91%,54%
"CTCTGCGCGATTCACTGAGG (sugars e5 d10 e5, PS)",,53%,86%,
"CTGAATCAAAATCTGCATTT (sugars e5 d10 e5, PS)",28%,,,
"CTGACACACAATATCCATGG (sugars e5 d10 e5, PS)",,76% and 57%,93% and 85%,
"CTGCACTCTCTCTGCACACT (sugars e5 d10 e5, PS)",,65% and 83%,81% and 90%,
"CTGCAGGCCACTCCCAGTAC (sugars e5 d10 e5, PS)",40%,,,
"CTGCGCGATTCACTGAGGAC (sugars e5 d10 e5, PS)",,78%,71%,
"CTGGAACTTCTTCTGGACCC (sugars e5 d10 e5, PS)",25%,,,
"CTGGTCCAGGGAGAGACCAA (sugars e5 d10 e5, PS)",25%,,,
"CTGGTGGTCAGCAGGTTGTG (sugars e5 d10 e5, PS)",57%,,,
"CTGTGGCACTAAGCTAGGCA (sugars e5 d10 e5, PS)",,64%,82%,

Sequence,"target mRNA inhibition (HepG2, 0.12 µM)","target mRNA inhibition (HepG2, 2.5 µM)","target mRNA inhibition (HepG2, 10 µM)","target mRNA inhibition (HepG2, 20 µM)"
"CTTATCCTTGAGGGTCTCAT (sugars e5 d10 e5, PS)",,56%,77%,
"CTTCACCAGCTGGATGGGAA (sugars e5 d10 e5, PS)",36%,,,
"CTTCTTGCTCACTTCTGTGG (sugars e5 d10 e5, PS)",25%,,,
"CTTGCTCACTTCTGTGGCCT (sugars e5 d10 e5, PS)",48%,,,
"GAAAACTTAGGCATGCTTCC (sugars e5 d10 e5, PS)",,59%,92%,
"GAAATCTGAGTGCTGCTAAC (sugars e5 d10 e5, PS)",,71%,91%,
"GAACTTCTTCTGGACCCATC (sugars e5 d10 e5, PS)",19%,,,
"GAAGGCACAGAAAAGTGAGG (sugars e5 d10 e5, PS)",11%,,,
"GAAGGCACCCAGGCCCATGA (sugars e5 d10 e5, PS)",38%,,,
"GACAAGCGACAGCCCTGTGC (sugars e5 d10 e5, PS)",,75%,79%,
"GACAGCTGTGATGACTTCCC (sugars e5 d10 e5, PS)",,73%,87%,
"GACAGGACCCACTGGAGCAC (sugars e2 d13 e5, PS)",73%,,,
"GACAGGACCCACTGGAGCAC (sugars e3 d14 e3, PS)",58%,,,
"GACCCACTGGAGCACTGAGA (sugars e3 d14 e3, PS)",56%,,,
"GACCCACTGGAGCACTGAGA (sugars e5 d10 e5, PS)",69%,,,
"GACCCACTGTGACCTCCTGC (sugars e5 d10 e5, PS)",25%,,,
"GACCTATTGAGCCAGGTGAC (sugars e5 d10 e5, PS)",36%,,,
"GACTTGCCCAGCAACCCATC (sugars e5 d10 e5, PS)",,77%,54%,
"GAGAAGAGGTCCTGGAGGGC (sugars e5 d10 e5, PS)",10%,,,
"GAGCAGATCTCAAAATCTCG (sugars e5 d10 e5, PS)",,72%,87%,
"GAGCTCAGAGACTCAGCCGC (sugars e2 d13 e5, PS)",89%,27%,42%,61%
"GAGCTCTCAAGTCTTCC (sugars e3 d10 e4, PS)",,55% and 64%,86% and 87%,

Sequence,"target mRNA inhibition (HepG2, 0.12 µM)","target mRNA inhibition (HepG2, 2.5 µM)","target mRNA inhibition (HepG2, 10 µM)","target mRNA inhibition (HepG2, 20 µM)"
"GAGTAAGGGTATTCTGCTCA (sugars e5 d10 e5, PS)",,,91% and 93% and 96%,
"GAGTAGGGCACCAGCCCCCA (sugars e5 d10 e5, PS)",0%,,,
"GAGTAGTCAAAGGTGGCTTC (sugars e5 d10 e5, PS)",,66%,78%,
"GATGCTCCAGGTGGGCCAGA (sugars e5 d10 e5, PS)",,52%,82%,
"GATGGCACTGCAGGCCACTC (sugars e5 d10 e5, PS)",28%,,,
"GATTCAAATCTGTGTGACCT (sugars e5 d10 e5, PS)",,64% and 83%,89% and 92%,
"GCAATGCCAATGCCTAG (sugars e3 d10 e4, PS)",,69% and 80%,78% and 87%,
"GCAATGTTGCCATCATA (sugars e3 d10 e4, PS)",,69% and 76%,90% and 95%,
"GCACCATTTTCACAAGGAGA (sugars e5 d10 e5, PS)",,79% and 72%,85% and 81%,
"GCACTAAGCTAGGCACACCC (sugars e5 d10 e5, PS)",,62%,90%,
"GCACTGACATGGTAAGTCCT (sugars e5 d10 e5, PS)",,87% and 79%,93% and 89%,
"GCACTGCAGGCCACTCCCAG (sugars e5 d10 e5, PS)",37%,,,
"GCAGATGGACAGGTGATTCT (sugars e5 d10 e5, PS)",,69%,91%,
"GCAGCCTGGACAAGTCCTGC (sugars e3 d14 e3, PS)",83%,48% and 59%,73%,81%
"GCAGCCTGGACAAGTCCTGC (sugars e5 d10 e5, PS)",70%,,,
"GCAGGTTGTGTGTCTTCACC (sugars e2 d13 e5, PS)",56%,,,
"GCAGGTTGTGTGTCTTCACC (sugars e3 d14 e3, PS)",69%,,,
"GCATGGAGCTCAGAGACTCA (sugars e5 d10 e5, PS)",69%,,,
"GCATTCTTGCCAGGCATGGA (sugars e5 d10 e5, PS)",,41%,74%,
"GCATTGCCACTCCCATTCTT (sugars e5 d10 e5, PS)",,,,94% and 91% and 95%
